In this assay the target is T1, recombinant human G9a protein (Homo sapiens, UniProt Q96KQ7).
T1 construct: purchased BPS Bioscience Inc. #51001
T1 sequence (Q96KQ7 785-1210 limits assumed): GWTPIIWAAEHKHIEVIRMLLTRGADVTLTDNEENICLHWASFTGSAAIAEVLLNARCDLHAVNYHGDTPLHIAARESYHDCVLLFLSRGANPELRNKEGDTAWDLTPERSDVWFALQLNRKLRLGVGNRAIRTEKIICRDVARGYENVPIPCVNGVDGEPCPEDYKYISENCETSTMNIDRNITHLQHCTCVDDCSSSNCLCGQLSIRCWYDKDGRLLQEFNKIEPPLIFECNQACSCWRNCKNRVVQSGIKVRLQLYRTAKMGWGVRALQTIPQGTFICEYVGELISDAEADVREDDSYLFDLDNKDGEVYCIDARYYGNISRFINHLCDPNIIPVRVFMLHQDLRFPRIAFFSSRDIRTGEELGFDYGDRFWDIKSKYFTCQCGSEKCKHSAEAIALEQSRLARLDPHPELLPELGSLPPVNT
Kind of assay: G9a inhibitory activity test (ALPHA). In kind it is biochemical. The protocol: The G9a inhibitory activity of each compound was evaluated by measuring the enzymatic activity of G9a by amplified luminescence proximity homogeneous assay (ALPHA). First, 7.5 μL of a dilution of recombinant human G9a protein (BPS Bioscience Inc., #51001) diluted to 0.05 to 0.1 nM with a Tris buffer solution (50 mM Tris-HCl [pH 9.0], 50 mM NaCl, 0.01% Tween-20, 1 mM DTT), and 0.5 μL of the test compound were added to each well of a 384-well microplate (AlphaPlate-384 Shallow Well, PerkinElmer, Inc., #6008359), mixed by vortex, and incubated at room temperature for 10 minutes. 500 nM biotinylated histone H3 peptide (1-21) (AnaSpec Inc., #61702) and 150 μM SAM (Sigma-Aldrich Co. LLC, #A7007) were mixed at 1:1 in advance, and 2 μL of the mixture was added to each well, mixed by vortex, and then incubated at room temperature for 1 hour. AlphaLISA anti-H3K9me2 acceptor beads (PerkinElmer, Inc., #AL117C) and AlphaScreen streptavidin donor beads (PerkinElmer, Inc., #6760002B) were each diluted with an epigenetic buffer (PerkinElmer, Inc., AlphaLISA Epigenetics Buffer Kit #AL008C) to a final concentration of […] after addition. These dilutions were added to the reaction solution in the dark and incubated at room temperature for 1 hour in the dark. Then, measurement was performed using the EnSpire Alpha plate reader (PerkinElmer, Inc., Waltham, Mass., USA). The G9a inhibitory activity of the test compound was calculated as a compound concentration necessary for suppressing G9a enzymatic activity by 50% (IC50 value), by determining the percent inhibition of the compound when the value of a control without the addition of the compound was defined as 0% and the value of a control without the addition of the enzyme was defined as 100%.

[1] abbreviates: read-out: Inhibitory activity (G9a IC50).
Where [2] appears, read: biotinylated histone H3 peptide (1-21), SAM, read-out: Inhibitory activity (G9a IC50 value).

Read-outs that look alike come from different tables or passages of the source. Some results are limits rather than exact numbers.

As to `Cc1c(C(=O)NC(CCC2CC2)C(=O)N2CCc3ccc(CN4CCCC4)cc32)[nH]c2c1C(=O)CC(C)(C)C2` (centres unmarked) [Example 1-145], under setting [1], the IC50 (as a rule, the concentration that inhibits the measured activity by half) was no less than 200 nM.

With `CCCCC(NC(=O)c1nc(-c2ccccc2)sc1C)C(=O)Nc1ccc(OC2CCN(C)CC2)nc1` (centres unmarked) [Example 11-11], the IC50 under setting [1] was no less than 200 nM.

In the case of `COc1ccc(NC(=O)C(CCC2CC2)NC(=O)c2ccc(Nc3ccncc3)c(C)c2)cn1` (centres unmarked) [Example 6-57], the IC50 under setting [1] is less than 50 nM.

Turning to `CCCCC(NC(=O)c1[nH]c2c(c1C)C(=O)CC(C)(C)C2)C(=O)NCc1ccc(CN(C)C)cc1` (centres unmarked) [Example 1-51], under setting [2], the IC50 is less than 50 nM.

As to `CCCCC(NC(=O)c1[nH]c2c(c1C)C(=O)CC(C)(C)C2)C(=O)Nc1ccc(N2CCCN(C)CC2)cc1` (centres unmarked) [Example 1-110], the IC50 under setting [1] fell in the range of 50 to 200 nM.

Take `COc1ccc(NC(=O)C(CCC2CC2)NC(=O)c2sc(-c3ccccc3)nc2C)cn1` (centres unmarked) [Example 6-61]: under setting [1], the IC50 was no less than 200 nM.

In the case of `CCCC[C@H](NC(=O)c1[nH]c2c(c1C)C(=O)CC(C)(C)C2)C(=O)N1CCc2c(OCCN3CCCC3)cccc21` [Example 6-103], under setting [1], the IC50 was no less than 200 nM.

As to `CCCCC(NC(=O)c1[nH]c2c(c1C)C(=O)CC(C)(C)C2)C(=O)Nc1ccc2[nH]ncc2c1` (centres unmarked) [Example 1-91], under setting [2], the IC50 is no less than 200 nM.

In the case of `CCCCC(NC(=O)c1[nH]c2c(c1C)C(=O)CC(C)(C)C2)C(=O)NCc1ccc(OCCN(C)C)cc1` (centres unmarked) [Example 1-18], the IC50 under setting [2] fell in the range of 50 to 200 nM.

In the case of `CCCCC(NC(=O)Cc1ccc(Cl)cc1)C(=O)Nc1ccc(OC2CCN(C)CC2)nc1` (centres unmarked) [Example 11-9], under setting [1], the IC50 was no less than 200 nM.

In the case of `CCCCC(NC(=O)c1[nH]c2c(c1C)C(=O)CC(C)(C)C2)C(=O)Nc1ccc(OC2CNC2)cc1` (centres unmarked) [Example 26-6], the IC50 under setting [1] was in the range of 50 to 200 nM.

Turning to `CCCC[C@H](NC(=O)c1[nH]c2c(c1C)C(=O)CC(C)(C)C2)c1nc2ccc(OCCN3CCCC3)cc2[nH]1` [Example 37-3], the 50% inhibitory concentration (IC50) under setting [1] was no less than 200 nM.

As for `CCCC[C@H](NC(=O)c1[nH]c2c(c1C)C(=O)CC(C)(C)C2)C(=O)N1CCc2c(OCC3CCN(C)CC3)cccc21` [Example 6-105], under setting [1], the IC50 is no less than 200 nM.

As for `CCCCC(NC(=O)c1[nH]c(C)c(C(=O)OCC)c1C)C(=O)Nc1ccc(OC2CCN(C)CC2)nc1` (centres unmarked) [Example 6-91], under setting [1], the IC50 was no less than 200 nM.

On to `COc1ccc(NC(=O)C(CCC2CC2)NC(=O)Cc2cccc3ccccc23)cn1` (centres unmarked) [Example 6-53], for which, under setting [1], the IC50 is no less than 200 nM.

On to `Cc1c(C(=O)NC(CCC2CC2)C(=O)N2CCc3cc(CN4CCOCC4)ccc32)[nH]c2c1C(=O)CC(C)(C)C2` (centres unmarked) [Example 1-143], for which the IC50 under setting [1] was no less than 200 nM.

Take `CCCC[C@H](NC(=O)c1[nH]c2c(c1C)C(=O)CC1(CCCCC1)C2)C(=O)N[C@@H](C)c1ccccc1` [Example 6-43]: the concentration for half-maximal inhibition (IC50) under setting [1] is no less than 200 nM.

Regarding `CCCC[C@@H](NC(=O)c1[nH]c2c(c1C)C(=O)CC(C)(C)C2)C(=O)N[C@@H](C)c1ccccc1` [Example 2-2, 3,6,6-trimethyl-4-oxo-N-((R)-1-oxo-1-(((S)-1-phenylethyl)amino)hexan-2-yl)-4,5,6,7-tetrahydro-1H-indol-2-carboxamide], the IC50 under setting [1] is no less than 200 nM.

Regarding `CCCC[C@H](NC(=O)c1[nH]c2c(c1C)C(=O)CC(C)(C)C2)c1nc2ccc(OCCN(C)C)cc2[nH]1` [Example 37-4], under setting [1], the IC50 was no less than 200 nM.

`Cc1ccc2c(c1)N(C(=O)C(CCC1CC1)NC(=O)c1[nH]c3c(c1C)C(=O)CC(C)(C)C3)CC2` (centres unmarked) [Example 1-78]: the IC50 under setting [2] was no less than 200 nM.

For the compound `COc1ccc(NC(=O)C(CCC2CC2)NC(=O)c2ccc(C3=CCN(C)CC3)cc2)cn1` (centres unmarked) [Example 6-68], under setting [1], the IC50 was no less than 200 nM.

As to `Cc1c(C(=O)NC(CCC2CC2)C(=O)N2CCc3cc(CN4CCCCC4)ccc32)[nH]c2c1C(=O)CC(C)(C)C2` (centres unmarked) [Example 1-129], the IC50 under setting [1] was no less than 200 nM.

On to `CCCCC(NC(=O)c1[nH]c2c(c1C)C(=O)CC(C)(C)C2)C(=O)NCc1ccc(CN2CCCC(F)(F)C2)cc1` (centres unmarked) [Example 18-7], for which the IC50 under setting [1] is no less than 200 nM.

For the compound `Cc1c(C(=O)NC(CCC2CC2)C(=O)N2CCc3c(OCC4CCN(C)CC4)cccc32)[nH]c2c1C(=O)CC(C)(C)C2` (centres unmarked) [Example 1-121], under setting [1], the IC50 was no less than 200 nM.

For `CCOc1ccc(NC(=O)C(CCC2CC2)NC(=O)c2[nH]c3c(c2C)C(=O)CC(C)(C)C3)cn1` (centres unmarked) [Example 1-58], the IC50 under setting [2] is no less than 200 nM.

For the compound `Cc1c(C(=O)NC(CCC2CC2)C(=O)N2CCc3cc(O)ccc32)[nH]c2c1C(=O)CC(C)(C)C2` (centres unmarked) [Example 1-132], the IC50 under setting [1] was no less than 200 nM.

For the compound `Cc1c(C(=O)N[C@H](CCC2CC2)C(=O)N[C@@H](C)c2ccccc2)[nH]c2c1C(=O)CC(C)(C)C2` [Example 13-2, N-((R)-4-Cyclopropyl-1-oxo-1-(((S)-1-phenylethyl)amino)butan-2-yl)-3,6,6-trimethyl-4-oxo-4,5,6,7-tetrahydro-1H-indole-2-carboxamide], the IC50 under setting [1] is no less than 200 nM.

With `CCCC[C@H](NC(=O)c1[nH]c2c(c1C)C(=O)CC(C)(C)C2)C(=O)NCc1ccc(N2CCN(CCC)CC2)cc1` [Example 22-4], the IC50 under setting [1] was no less than 200 nM.

As for `CCCCC(NC(=O)c1[nH]c2c(c1C)C(=O)CC(C)(C)C2)C(=O)NCc1cccc(OC)c1` (centres unmarked) [Example 1-45], the IC50 under setting [2] was no less than 200 nM.

Regarding `CCCCC(NC(=O)Cc1ccc(C)cc1)C(=O)Nc1ccc(OC2CCN(C)CC2)nc1` (centres unmarked) [Example 11-8], the IC50 under setting [1] is no less than 200 nM.

For the compound `Cc1c(C(=O)NC(CCC2CC2)C(=O)N2CCc3c(CN(C)C)cccc32)[nH]c2c1C(=O)CC(C)(C)C2` (centres unmarked) [Example 1-59], the IC50 under setting [2] is 50 to 200 nM.

For the compound `CCCCC(NC(=O)c1[nH]c2c(c1C)C(=O)CC(C)(C)C2)C(=O)NCc1ccc(C(=O)OC)cc1` (centres unmarked) [Example 6-21], the IC50 under setting [1] is no less than 200 nM.

On to `CCCCC(NC(=O)c1[nH]c2c(c1C)C(=O)CC(C)(C)C2)C(=O)Nc1ccccc1CN(C)C` (centres unmarked) [Example 5-3], for which the IC50 under setting [1] is no less than 200 nM.

Regarding `CCc1cc(C)ccc1NC(=O)C(CCC1CC1)NC(=O)c1[nH]c2c(c1C)C(=O)CC(C)(C)C2` (centres unmarked) [Example 14-1, N-[4-cyclopropyl-1-(2-ethyl-4-methylamino)-1-oxobutan-2-yl]-3,6,6-trimethyl-4-oxo-5,7-dihydro-1H-indole-2-carboxamide], under setting [1], the IC50 was less than 50 nM.

For the compound `CCc1cc(C#N)ncc1NC(=O)C(CCC1CC1)NC(=O)c1[nH]c2c(c1C)C(=O)CC(C)(C)C2` (centres unmarked) [Example 15-2], under setting [1], the IC50 lay within 50 to 200 nM.

As for `CSc1ccccc1NC(=O)C(CCC1CC1)NC(=O)c1[nH]c2c(c1C)C(=O)CC(C)(C)C2` (centres unmarked) [Example 1-83], under setting [2], the IC50 is less than 50 nM.

Regarding `Cc1c(C(=O)NC(CCC2CC2)C(=O)N2CCc3c(OCCN(C)C)cccc32)[nH]c2c1C(=O)CC(C)(C)C2` (centres unmarked) [Example 1-122], the IC50 under setting [1] was 50 to 200 nM.

`CCCC[C@H](NC(=O)c1[nH]c2c(c1C)C(=O)CC(C)(C)C2)C(=O)N1CCc2c(OCCN3CCCCC3)cccc21` [Example 6-104]: under setting [1], the half-maximal inhibitory concentration (IC50) was no less than 200 nM.

With `COC(=O)c1ccc2c(c1)nc(C(CCC1CC1)NC(=O)c1[nH]c3c(c1C)C(=O)CC(C)(C)C3)n2C` (centres unmarked) [Example 30-3], the IC50 under setting [1] is no less than 200 nM.

Consider `COc1ccc(NC(=O)C(CCC2CC2)NC(=O)c2cccc(CCCN(C)C)c2)cn1` (centres unmarked) [Example 6-75], for which the IC50 under setting [1] was no less than 200 nM.

On to `Cc1c(C(=O)NC(C(=O)Nc2ccc(OC3CCN(C)CC3)nc2)c2ccccc2)[nH]c2c1C(=O)CC(C)(C)C2` (centres unmarked) [Example 1-86], for which the IC50 under setting [2] was no less than 200 nM.

Consider `COc1ccc(NC(=O)C(CCC2CC2)NC(=O)c2[nH]c3c(c2C)C(=O)CC(C)(C)C3)cc1` (centres unmarked) [Example 1-63], for which the IC50 under setting [2] lay within 50 to 200 nM.

On to `CCCCC(NC(=O)c1[nH]c2c(c1C)C(=O)CC(C)(C)C2)C(=O)Nc1cccc(CN2CCCC2)c1` (centres unmarked) [Example 1-113], for which the IC50 under setting [1] is less than 50 nM.

Take `CCCCC(NC(=O)c1[nH]c2c(c1C)C(=O)CC(C)(C)C2)C(=O)Nc1cccc2c1CCC2` (centres unmarked) [Example 1-34]: the IC50 under setting [2] is no less than 200 nM.

As for `CCCCC(NC(=O)c1[nH]c2c(c1C)C(=O)CC(C)(C)C2)C(=O)Nc1ccc(N)cc1` (centres unmarked) [Example 21, N-[1-(4-aminoanilino)-1-oxohexan-2-yl]-3,6,6-trimethyl-4-oxo-5,7-dihydro-1H-indole-2-carboxamide], the IC50 under setting [1] was no less than 200 nM.

Turning to `CCCCC(NC(=O)c1[nH]c2c(c1C)C(=O)CC(C)(C)C2)C(=O)Nc1cccc2c1CCCC2` (centres unmarked) [Example 1-93], under setting [2], the IC50 was in the range of 50 to 200 nM.

Turning to `COc1ccc(NC(=O)C(CCC2CC2)NC(=O)c2ccc(Nc3ccnc(C)c3)cc2)cn1` (centres unmarked) [Example 6-63], the IC50 under setting [1] is less than 50 nM.

The values above are taken from patent publication US20230127046A1, “G9a INHIBITOR” (RIKEN, priority 2019, published 2023).
